Entries after “also recorded” stand apart in the source; their conditions may differ.
Experiments:
[1] = C11-BODIPY581/591 oxidation lipid peroxidation assay in liposomes; conditions: for quenching of lipid peroxidation (retention of C11-BODIPY581/591 fluorescence): 10 mM AAPH, phospholipid liposomes, phosphate buffer, 40° C.
Protocol: To overcome the problem of spectral overlap using cis-parinaric acid, a fluorescence assay for lipid peroxidation using a lipophilic probe belonging to the BODIPY class of fluorescent dyes was used. C11-BODIPY^581/591 (4,4-difluoro-5(4-phenyl-1,3-butadienyl)-4-bora-3a,4a-diaza-s-indacene-3-propionic acid) fluorescence shifts from red to green upon oxidation. C11-BODIPY^581/591 (Molecular Probes, Eugene, Oreg., USA) stock solution concentrations were determined by measuring the absorption of C11-BODIPY^581/591 at 582 nm using a molar extinction coefficient of 140,000 mol^−1 cm^−1(R. P. Haugland, (1999) Handbook of Fluorescent Probes and Research Chemicals, Molecular Probes, Inc., Eugene, Oreg.). The lipid peroxidation inducer 2,2′-Azobis (2-amidino-propane dihydrochloride) (AAPH) and the antioxidant compound α-tocopherol were obtained from Sigma (St. Louis, Mo., USA). Phospholipid bilayers were prepared from 1-stearoyl-2-oleoyl-phosphatidylcholine (SOPC) and 1,2-dilinoleoyl-phosphatidylcholine (DLPC) and were purchased from Avanti® polar lipids, INC (Alabaster, Ala., USA).
Phosphotidylcholine (PC) liposomes were prepared as described before (Guey-Shuang et al. (1982) Lipids. 17, 403-413). Briefly, DLPC (25 mg) and SOPC (25 mg) were dissolved in chloroform and the solvent was removed by nitrogen evaporation (˜2 hours to give a thin film of PC in a round bottom flask. The lipid film was hydrated with 50 mL of 10 mM Tris-HCl (pH 7.4), 100 mM KCl, shaken and sonicated for 15 seconds. The liposomes obtained were filtered several times through 0.2 μM membrane filter.
C11 BODIPY^581/591 was incorporated into liposomes and oxidized by peroxyl radicals derived from the decomposition of AAPH in presence and absence of the compounds. […] Liposomes were pre-incubated for 10 min with 200 nM C11 BODIPY^581/591 to allow their incorporation into the lipid phase of the liposomes. After the addition of AAPH (10 mM) the decay of red fluorescence was followed at λ exc=570 nm, λ em=600 nm. Relative fluorescence units were normalized to 100% intensity. Results obtained were verified by repeating experiments N=3 independent experiments.

[2] = test system: CEM cells; assay: Reactive oxygen species (ROS) assay, DCFH-DA, DEM-treated cells; assay type: cell-based, human
[3] = Stability of isolated free base on storage; assay type: physicochemical; conditions: orange oil
Protocol: To a solution of 2.2 mg (4.4 μmol) acetyl ester 35 in 1 mL CH2Cl2 was added 17.5 μL (17.5 μmol) of DIBAL-H at −78° C. The reaction mixture was stirred at same temperature for 2 h than 1 mL of aqueous saturated sodium potassium tartrate was added slowly. The reaction mixture was allowed to warm to room temperature slowly add stirred for 3 h then separated. The aqueous layer was extracted with two portions of 5 mL of ethyl acetate. The combined organic layer was washed with brine, dried (Na2SO4) and concentrated under diminished pressure to give the product C as orange oil. HPLC found retain time in 21.82 min.

[4] = test system: Human CEM leukemia cells; assay: Live/Dead Viability/Cytotoxicity flow cytometry assay; assay type: cell-based; conditions: overnight incubation, then DEM 3 hours
Protocol: Cell viability and cytotoxicity were determined by simultaneous staining live and dead cells using a two-color fluorescence assay, the Live/Dead® Viability/Cytotoxicity Kit (Molecular Probes). This assay is used to measure two recognized parameters of cell viability, intracellular esterase activity and plasma integrity. The membrane-impermeant DNA dye ethidium homodimer-1 (EthD-1) was used to identify dead cells whose plasma membrane integrity was disrupted. The membrane-permeant dye calcein-AM was used to label live cells. It penetrates into the cells where it is metabolized by cytoplasmic esterases and becomes a fluorescent but membrane-impermeant probe which is retained in viable cells. Human CEM leukemia cells were incubated overnight in RPMI medium (control) and in the presence of test compound and then treated with DEM for 3 hours. Cells were stained with 0.2 μM calcein-AM and 0.4 μM EthD-1. After 15 minutes, flow cytometry analysis was carried out using excitation at 488 nm. The green-fluorescent (539 nm) FL1-H channel, live-cell population appears in the lower right quadrant and the red-fluorescent (585 nm) FL2-H channel dead-cell population appears in the upper left quadrant (FIG. 11). In each analysis, 10,000 events were recorded. Results obtained were verified in three independent experiments.

| stability of isolated compound [3] | Compound | quenching of lipid peroxidation (retention of C11-BODIPY581/591 fluorescence) [1] | protection against lipid peroxidation ([1]; compound 15 μM, AAPH, liposomes) | protection against ROS production (DCF fluorescence) ([2]; compound 1 μM, 5 mM DEM) | protection against ROS production (DCF fluorescence) ([2]; compound 5 μM, 5 mM DEM) | suppression of ROS production (DCF fluorescence) ([2]; pretreatment 0.5, 1 or 5 μM, DEM) | maintaining cell viability (Live/Dead kit, flow cytometry) [4] | suppression of ROS (DCF fluorescence) ([2]; 1 μM, pretreatment 1, 3 or 6 hours, 5 mM DEM) | protection against ROS production (DCF fluorescence) ([2]; 5 μM, pretreatment 4 or 24 h) |
| --- | --- | --- | --- | --- | --- | --- | --- | --- | --- |
|  | Cc1nc(N(C)C)nc(CCCCCCCCCCO)c1O [Compound A, 2-N,N-dimethylamino-5-hydroxy-4-methyl-6-(10-hydroxydecyl)-pyrimidine] | more effective in preventing lipid peroxidation than idebenone and its reduced form (Idebenol); also recorded: much more effective than idebenone and its reduced form in preventing lipid peroxidation | complete protection | complete protection | significantly more effective in blocking diethylmaleate-induced ROS production compared to idebenone or its reduced form (Idebenol); also recorded: protected the cells | more effective than idebenone at all tested concentrations; also recorded: more effective than idebenone in suppressing ROS in a dose-dependent fashion |  |  |  |
| degenerated after one day | Cc1nc2c(c(CC[C@](C)(O)CCC[C@H](C)CCC[C@H](C)CCCC(C)C)c1O)CCN2C [Compound C, 4-((3R,7R,11R)-3-hydroxy-3,7,11,15-tetramethylhexadecyl)-1,6-dimethyl-2,3-dihydro-1H-pyrrolo[2,3-b]pyridine-5-ol] | prevent lipid peroxidation in a concentration-dependent fashion with scavenging activity much higher than α-tocopherol; also recorded: prevents lipid peroxidation in a concentration-dependent fashion with scavenging activity much greater than that of α-tocopherol and compound C redox core; also recorded: much more effective than α-tocopherol in quenching lipid peroxidation |  |  | more effective in protecting glutathione depleted CEM cells than α-tocopherol; also recorded: protected the cells |  | both effective in maintaining cell viability following treatment with DEM, with compound C being somewhat more effective; also recorded: superiority of compound C | clearly more effective than α-tocopherol in suppressing ROS | better protection against ROS production than α-tocopherol after a 4-hour preincubation |
|  | COC1=C(OC)C(=O)C(CCCCCCCCCCO)=C(C)C1=O [idebenone, reference compound] |  |  |  | only limited effect |  |  |  |  |
|  | Cc1c(C)c2c(c(C)c1O)CC[C@@](C)(CCC[C@H](C)CCC[C@H](C)CCCC(C)C)O2 [α-tocopherol, reference compound] |  |  |  | ineffective |  | effective in maintaining cell viability following treatment with DEM |  |  |
